Measurements: patent publication US6043217A, “Amide derivative of amythiamicin” (Zaidan Hojin Biseibutsu Kagaku Kenyu Kai, priority 1996, dated 2000)

Key:
[1] = background statement on known amythiamicins; cited from earlier work
[2] = test system: Staphylococcus aureus MS 15009/pMS 98; assay: MIC, standard serial dilution method; type: cell-based; settings: Muller-Hinton agar medium, 37° C.
Description: (§1) The antibacterial activities of the amythiamicin amide derivative of the general formula (I) according to this invention are now concretely described. Compounds No. 1 to No. 11 according to this invention, which were respectively prepared in Examples 1 to 11 hereinafter given, were tested as the test compounds for their minimum inhibitory concentrations (MIC.) (μg/ml) against growth of a variety of test microorganisms by a standard serial dilution method. In the tests, the incubation medium used was Muller-Hinton agar medium and the incubation temperature was 37° C. The test results are shown as antibacterial spectra in the following Tables 2 and 3.

[3] = test system: Staphylococcus aureus MS 15009/pMS 99; assay: MIC, standard serial dilution method; type: cell-based; settings: Muller-Hinton agar medium, 37° C.
Description: as §1

[4] = test system: Enterobacterium faecalis W-73; assay: MIC, standard serial dilution method; type: cell-based; settings: Muller-Hinton agar medium, 37° C.
[5] = test system: Staphylococcus aureus MS 15027; assay: MIC, standard serial dilution method; type: cell-based; settings: Muller-Hinton agar medium, 37° C.
[6] = test system: Branhamella catarrhalis W-0506; assay: MIC, standard serial dilution method; type: cell-based; settings: Muller-Hinton agar medium, 37° C.
[7] = test system: Streptococcus pneumoniae IP 692; assay: MIC, standard serial dilution method; type: cell-based; settings: Muller-Hinton agar medium, 37° C.
[8] = test system: Staphylococcus aureus M 126; assay: MIC, standard serial dilution method; type: cell-based; settings: Muller-Hinton agar medium, 37° C.
[9] = test system: Staphylococcus aureus M 133; assay: MIC, standard serial dilution method; type: cell-based; settings: Muller-Hinton agar medium, 37° C.
[10] = test system: Klebsiella pneumonia PCI 602; assay: MIC, standard serial dilution method; type: cell-based; settings: Klebsiella pneumonia PCI 602 (Table 3); Muller-Hinton agar medium, 37° C.
[11] = test system: Branhamella catarrhalis W-0500; assay: MIC, standard serial dilution method; type: cell-based; settings: Muller-Hinton agar medium, 37° C.
[12] = test system: Staphylococcus epidermidis ATCC 14990; assay: MIC, standard serial dilution method; type: cell-based; settings: Muller-Hinton agar medium, 37° C.
[13] = test system: Streptococcus pneumoniae Type 1; assay: MIC, standard serial dilution method; type: cell-based; settings: Muller-Hinton agar medium, 37° C.
[14] = test system: Micrococcus luteus ATCC 9341; assay: MIC, standard serial dilution method; type: cell-based; settings: Muller-Hinton agar medium, 37° C.
[15] = test system: Haemophilus influenzae 9334; assay: MIC, standard serial dilution method; type: cell-based; settings: Muller-Hinton agar medium, 37° C.
[16] = test system: Escherichia coli NIHJ JC-2; assay: MIC, standard serial dilution method; type: cell-based; settings: Muller-Hinton agar medium, 37° C.
[17] = test system: Haemophilus influenzae Type b; assay: MIC, standard serial dilution method; type: cell-based; settings: Muller-Hinton agar medium, 37° C.
[18] = test system: Staphylococcus aureus MS 15026; assay: MIC, standard serial dilution method; type: cell-based; settings: Muller-Hinton agar medium, 37° C.
[19] = test system: Streptococcus pyogenes Cook; assay: MIC, standard serial dilution method; type: cell-based; settings: Muller-Hinton agar medium, 37° C.
[20] = test system: Staphylococcus aureus 209P JC-1; assay: MIC, standard serial dilution method; type: cell-based; settings: Muller-Hinton agar medium, 37° C.

CNC(=O)CC1NC(=O)c2csc(n2)-c2ccc(-c3nc(C(=O)OC)cs3)nc2-c2csc(n2)-c2csc(n2)C(C(C)C)NC(=O)CNC(=O)c2csc(n2)C(C(C)C)NC(=O)c2nc1sc2C (centres unmarked) [Amythiamicin D]
hardly soluble in water: solubility in water [1]

CCCCNC(=O)c1csc(-c2ccc3c(n2)-c2csc(n2)-c2csc(n2)C(C(C)C)NC(=O)CNC(=O)c2csc(n2)C(C(C)C)NC(=O)c2nc(sc2C)C(CC(=O)NC)NC(=O)c2csc-3n2)n1 (centres unmarked) [Compound No. 8]
1.56 µg/mL: Minimum growth inhibitory concentrations (MIC.) [14]
> 100 µg/mL: Minimum growth inhibitory concentrations (MIC.) [2] | Minimum growth inhibitory concentrations (MIC.) [3] | Minimum growth inhibitory concentrations (MIC.) [4] | Minimum growth inhibitory concentrations (MIC.) [5] | Minimum growth inhibitory concentrations (MIC.) [6] | Minimum growth inhibitory concentrations (MIC.) [7] | Minimum growth inhibitory concentrations (MIC.) [8] | Minimum growth inhibitory concentrations (MIC.) [9] | Minimum growth inhibitory concentrations (MIC.) [10] | Minimum growth inhibitory concentrations (MIC.) [11] | Minimum growth inhibitory concentrations (MIC.) [12] | Minimum growth inhibitory concentrations (MIC.) [13] | Minimum growth inhibitory concentrations (MIC.) [15] | Minimum growth inhibitory concentrations (MIC.) [16] | Minimum growth inhibitory concentrations (MIC.) [17] | Minimum growth inhibitory concentrations (MIC.) [18] | Minimum growth inhibitory concentrations (MIC.) [19] | Minimum growth inhibitory concentrations (MIC.) [20]

CNC(=O)CC1NC(=O)c2csc(n2)-c2ccc(-c3nc(C(=O)NCCCO)cs3)nc2-c2csc(n2)-c2csc(n2)C(C(C)C)NC(=O)CNC(=O)c2csc(n2)C(C(C)C)NC(=O)c2nc1sc2C (centres unmarked) [Compound No. 9]
> 100 µg/mL: Minimum growth inhibitory concentrations (MIC.) [6] | Minimum growth inhibitory concentrations (MIC.) [7] | Minimum growth inhibitory concentrations (MIC.) [10] | Minimum growth inhibitory concentrations (MIC.) [11] | Minimum growth inhibitory concentrations (MIC.) [13] | Minimum growth inhibitory concentrations (MIC.) [15] | Minimum growth inhibitory concentrations (MIC.) [16] | Minimum growth inhibitory concentrations (MIC.) [17] | Minimum growth inhibitory concentrations (MIC.) [19]
0.20 µg/mL: Minimum growth inhibitory concentrations (MIC.) [14]
0.78 µg/mL: Minimum growth inhibitory concentrations (MIC.) [12]
0.39 µg/mL: Minimum growth inhibitory concentrations (MIC.) [2] | Minimum growth inhibitory concentrations (MIC.) [3] | Minimum growth inhibitory concentrations (MIC.) [4] | Minimum growth inhibitory concentrations (MIC.) [5] | Minimum growth inhibitory concentrations (MIC.) [8] | Minimum growth inhibitory concentrations (MIC.) [9] | Minimum growth inhibitory concentrations (MIC.) [18] | Minimum growth inhibitory concentrations (MIC.) [20]

CNC(=O)CC1NC(=O)c2csc(n2)-c2ccc(-c3nc(C(=O)N[C@@H](CCCNC(=N)N)C(=O)O)cs3)nc2-c2csc(n2)-c2csc(n2)C(C(C)C)NC(=O)CNC(=O)c2csc(n2)C(C(C)C)NC(=O)c2nc1sc2C (some centres unmarked) [Compound No. 10]
> 100 µg/mL: Minimum growth inhibitory concentrations (MIC.) [2] | Minimum growth inhibitory concentrations (MIC.) [3] | Minimum growth inhibitory concentrations (MIC.) [4] | Minimum growth inhibitory concentrations (MIC.) [5] | Minimum growth inhibitory concentrations (MIC.) [6] | Minimum growth inhibitory concentrations (MIC.) [7] | Minimum growth inhibitory concentrations (MIC.) [8] | Minimum growth inhibitory concentrations (MIC.) [9] | Minimum growth inhibitory concentrations (MIC.) [10] | Minimum growth inhibitory concentrations (MIC.) [11] | Minimum growth inhibitory concentrations (MIC.) [12] | Minimum growth inhibitory concentrations (MIC.) [13] | Minimum growth inhibitory concentrations (MIC.) [14] | Minimum growth inhibitory concentrations (MIC.) [15] | Minimum growth inhibitory concentrations (MIC.) [16] | Minimum growth inhibitory concentrations (MIC.) [17] | Minimum growth inhibitory concentrations (MIC.) [18] | Minimum growth inhibitory concentrations (MIC.) [19] | Minimum growth inhibitory concentrations (MIC.) [20]

CNC(=O)CC1NC(=O)c2csc(n2)-c2ccc(-c3nc(C(=O)N[C@H](CO)CCCNC(=N)N)cs3)nc2-c2csc(n2)-c2csc(n2)C(C(C)C)NC(=O)CNC(=O)c2csc(n2)C(C(C)C)NC(=O)c2nc1sc2C (some centres unmarked) [Compound No. 11]
> 100 µg/mL: Minimum growth inhibitory concentrations (MIC.) [2] | Minimum growth inhibitory concentrations (MIC.) [3] | Minimum growth inhibitory concentrations (MIC.) [4] | Minimum growth inhibitory concentrations (MIC.) [5] | Minimum growth inhibitory concentrations (MIC.) [6] | Minimum growth inhibitory concentrations (MIC.) [7] | Minimum growth inhibitory concentrations (MIC.) [8] | Minimum growth inhibitory concentrations (MIC.) [9] | Minimum growth inhibitory concentrations (MIC.) [10] | Minimum growth inhibitory concentrations (MIC.) [11] | Minimum growth inhibitory concentrations (MIC.) [12] | Minimum growth inhibitory concentrations (MIC.) [13] | Minimum growth inhibitory concentrations (MIC.) [15] | Minimum growth inhibitory concentrations (MIC.) [16] | Minimum growth inhibitory concentrations (MIC.) [17] | Minimum growth inhibitory concentrations (MIC.) [18] | Minimum growth inhibitory concentrations (MIC.) [19]
6.25 µg/mL: Minimum growth inhibitory concentrations (MIC.) [20]
100 µg/mL: Minimum growth inhibitory concentrations (MIC.) [14]
